According to patent publication US10344019B2 (priority 2010, dated 2019):
Read-outs that look alike come from different tables or passages of the source.

What was measured:
Format in all cases: cell-based
[1] = system: HCV 1a RLuc cells (dicistronic genotype 1a H77 replicon, RLuc reporter); assay: microbe, parasite or virus in culture; conditions: Hepatitis C virus, read-out: 1a
In short: (§1)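 Replicon cells stably carrying the listed RLuc-encoding dicistronic replicons were seeded and treated with DMSO serial dilutions of compound (10 mM stocks) diluted into culture medium. After 72 h, cells were lysed and Renilla luciferase activity measured. EC50 was derived by non-linear regression.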

[2] = system: HCV 2a JFH-1 Rluc cells (dicistronic genotype 2a JFH-1 replicon, RLuc reporter); assay: microbe, parasite or virus in culture; conditions: Hepatitis C virus, read-out: 2a JFH
In short: as §1

[3] = system: HCV 2b Rluc cells (NS5A chimeric genotype 2a JFH-1 replicon with genotype 2b MD2b-1 NS5A gene, M31 present); assay: microbe, parasite or virus in culture; conditions: Hepatitis C virus, read-out: 2b
In short: as §1

[4] = system: HCV 3a RLuc cells (NS5A chimeric genotype 1b Con1 replicon with consensus genotype 3a NS5A gene); assay: microbe, parasite or virus in culture; conditions: Hepatitis C virus
In short: as §1

[5] = system: Q30R in genotype 1a NS5A, 1a Rluc replicon transfected into Huh-7 cured-51 cells; assay: HCV replicon assay, resistance mutant 1a Q30R; conditions: Hepatitis C virus, Huh-7, read-out: 1a Q30R
Protocol: Evaluation of cell-based anti-HCV activity: Antiviral potency (EC50) was determined using a Renilla luciferase (RLuc)-based HCV replicon reporter assay. To perform the assay for genotype 1 and 2a JFH-1, HCV 1b RLuc cells (harboring a dicistronic genotype 1b Con1 replicon that encodes a RLuc reporter), or HCV 1a RLuc cells (harboring a dicistronic genotype 1a H77 replicon that encodes a RLuc reporter), or HCV 2a JFH-1 Rluc cells (harboring a dicistronic genotype 2a JFH-1 replicon that encodes a RLuc reporter) were dispensed into 384-well plates. To perform the assay for genotype 2a (with M31 present) or 2b, HCV 2a Rluc or 2b Rluc cells (both with M31 present) harboring a dicistronic NS5A chimeric genotype 2a JFH-1 replicon that encodes a RLuc reporter and either genotype 2a J6 strain NS5A gene or genotype 2b MD2b-1 NS5A gene (based on Los Alamos HCV database isolates, both with M31 present) respectively, were dispensed into 384-well plates. To perform the assay for genotype 3 and 4, HCV 3a RLuc or 4a Rluc cells harboring a dicistronic NS5A chimeric genotype 1b Con1 replicon that encodes a RLuc reporter and either a consensus genotype 3a NS5A gene or genotype 4a NS5A gene (based on Los Alamos HCV database isolates) respectively, were dispensed into 384-well plates. Compounds were re-suspended in DMSO at a concentration of 10 mM and serially diluted in DMSO either manually or using an automated pipeting instrument. Serially diluted compounds were mixed with cell culture media and added to the seeded cells. […] 72 hours later, cells were lysed and Renilla luciferase activity quantified as recommended by the manufacturer (Promega-Madison, Wis.). Non-linear regression was performed to calculate EC50 values.
To determine the antiviral potency (EC50) against resistance mutants, resistance mutations, including M28T, Q30R, Q30H, L31M, and Y93C in genotype 1a NS5A and Y93H in genotype 1b NS5A, were introduced individually into either 1a Rluc or 1b Rluc replicons described above by site directed mutagenesis. Replicon RNA of each resistant mutant was transfected into Huh-7 cured-51 cells and antiviral potency was determined on these transfected cells as described above.

[6] = system: HCV 2a Rluc cells (NS5A chimeric genotype 2a JFH-1 replicon with genotype 2a J6 strain NS5A gene, M31 present); assay: HCV replicon reporter assay, genotype 2a J6 (M31 present); conditions: Hepatitis C virus, read-out: 2a J6
In short: as §1

[7] = system: HCV 1b RLuc cells (dicistronic genotype 1b Con1 replicon, RLuc reporter); assay: microbe, parasite or virus in culture; conditions: Hepatitis C virus, read-out: 1b (nM)
In short: as §1

[8] = system: HCV 4a Rluc cells (NS5A chimeric genotype 1b Con1 replicon with genotype 4a NS5A gene); assay: microbe, parasite or virus in culture; conditions: Hepatitis C virus, read-out: 4a
In short: as §1

[9] = genotype 2a JFH-1 RLuc replicon
[10] = read-out: 3a, genotype 3a NS5A chimeric replicon
[11] = read-out: 3a, genotype 3a replicon

| SMILES | EC50 ([1]; genotype 1a H77 RLuc replicon) | EC50 [2, 9] | EC50 [3] | EC50 [4, 10] | EC50 [5] | EC50 [6] | EC50 [7] | EC50 ([1]; genotype 1a replicon) | EC50 ([2]; genotype 2a JFH-1 replicon) | EC50 [4, 11] | EC50 [8] | EC50 ([1]; genotype 1a H77 replicon, RLuc reporter) | EC50 ([2]; genotype 2a JFH-1 replicon, RLuc reporter) | EC50 ([4]; read-out: 3a, genotype 3a NS5A chimeric 1b Con1 replicon) |
| --- | --- | --- | --- | --- | --- | --- | --- | --- | --- | --- | --- | --- | --- | --- |
| CC[C@H](C)[C@H](NC(=O)OC)C(=O)N1[C@@H](C)CC[C@H]1c1ncc(-c2ccc3c(c2)COc2cc4c(ccc5nc([C@@H]6C[C@H](COC)CN6C(=O)[C@H](NC(=O)OC)c6ccccc6)[nH]c54)cc2-3)[nH]1 [Example 637] | 1 to 999 pM | 1 to 999 pM | 1 to 999 pM | 1 to 990 pM | 1 to 999 pM | 1 to 999 pM | – | – | – | – | – | – | – | – |
| COC[C@H]1C[C@@H](c2nc3c([nH]2)-c2cc4c(cc2CC3)-c2ccc(-c3cnc([C@@H]5CC[C@H](C)N5C(=O)[C@@H](NC(=O)OC)C(C)C)[nH]3)cc2CO4)N(C(=O)[C@H](NC(=O)OC)c2ccccc2)C1 [Example 614] | 1 to 999 pM | 1 to 999 pM | 1 to 999 pM | 1 to 990 pM | 1 to 999 pM | 1 to 999 pM | – | – | – | – | – | – | – | – |
| COC[C@H]1C[C@@H](c2ncc(-c3ccc4c(c3)COc3cc5c(ccc6nc([C@@H]7CC[C@H](C)N7C(=O)[C@@H](NC(=O)OC)C(C)C)[nH]c65)cc3-4)[nH]2)N(C(=O)[C@H](NC(=O)OC)c2ccccc2)C1 [Example 599] | 1 to 999 pM | 1 to 999 pM | 1 to 999 pM | 1 to 990 pM | 1 to 999 pM | 1 to 999 pM | – | – | – | – | – | – | – | – |
| COC[C@H]1C[C@@H](c2ncc(-c3ccc4c(c3)COc3cc5c(cc3-4)CCc3nc([C@@H]4CC[C@H](C)N4C(=O)[C@@H](NC(=O)OC)C(C)C)[nH]c3-5)[nH]2)N(C(=O)[C@H](NC(=O)OC)c2ccccc2)C1 [Example 608] | 1 to 999 pM | 1 to 999 pM | 1 to 999 pM | – | 1 to 999 pM | 1 to 999 pM | 0.017 nM | – | – | – | – | – | – | – |
| COC[C@H]1C[C@@H](c2ncc(-c3ccc4c(c3)COc3cc5c(ccc6nc([C@@H]7CC[C@H](C)N7C(=O)[C@@H](NC(=O)OC)C(C)C)[nH]c65)cc3-4)[nH]2)N(C(=O)[C@@H](NC(=O)OC)C(C)C)C1 [Example 600] | 1 to 999 pM | 1 to 999 pM | 1 to 999 pM | – | 1 to 999 pM | 1 to 999 pM | 0.007 nM | – | – | – | – | – | – | – |
| COC(=O)N[C@H](C(=O)N1CCC[C@H]1c1nc(Cl)c(-c2cc3c4c(c2)OCc2cc(-c5[nH]c([C@@H]6CCCN6C(=O)[C@@H](NC(=O)OC)C(C)C)nc5Cl)cc(c2-4)OC3)[nH]1)C(C)C [Example 384] | – | – | – | – | 1000 to 44000 pM | 1000 to 44000 pM | 0.013 nM | 1 to 999 pM | 1 to 999 pM | 1 to 990 pM | 1 to 990 pM | – | – | – |
| O=C(N[C@@H](C(=O)N1CCC[C@H]1c1ncc(-c2cc3c4c(c2)OCc2cc(-c5cnc([C@@H]6CCCN6C(=O)[C@H](NC(=O)c6cncnc6)c6ccccc6)[nH]5)cc(c2-4)OC3)[nH]1)c1ccccc1)c1cncnc1 [Example 492] | 1000 to 44000 pM | 1 to 999 pM | 1000 to 44000 pM | 1 to 990 pM | – | > 44000 pM | 0.898 nM | – | – | – | 1 to 990 pM | – | – | – |
| COC(=O)N[C@H](C(=O)N1CCC[C@H]1c1ncc(-c2ccc(-c3ccc4c(ccc5nc([C@@H]6[C@H]7CC[C@H](C7)N6C(=O)[C@H](NC(=O)OC)c6ccccc6)[nH]c54)c3)cc2)[nH]1)C(C)C [Example 410] | – | – | > 44000 pM | – | – | 1000 to 44000 pM | 0.018 nM | 1 to 999 pM | 1 to 999 pM | 1 to 990 pM | 1 to 990 pM | – | – | – |
| COC(=O)N[C@@H](C(=O)N1C[C@@H](OC)C[C@H]1c1ncc(-c2ccc(-c3ccc4cc(-c5cnc([C@@H]6CCCN6C(=O)[C@H](C(C)C)N(C)C(=O)OC)[nH]5)ccc4c3)cc2)[nH]1)c1ccccc1 [Example 122] | – | – | > 44000 pM | – | – | > 44000 pM | 0.009 nM | – | – | – | 1 to 990 pM | 1 to 999 pM | 1 to 999 pM | 1 to 990 pM |
| COC(=O)N[C@H](C(=O)N1CCC[C@H]1c1nc2ccc3cc(-c4ccc5c(ccc6nc([C@@H]7[C@H]8CC[C@H](C8)N7C(=O)[C@H](NC(=O)C7CC7)c7ccccc7)[nH]c65)c4)ccc3c2[nH]1)C(C)C [Example 455] | – | – | 1 to 999 pM | – | – | 1 to 999 pM | 0.029 nM | 1 to 999 pM | 1 to 999 pM | 1 to 990 pM | 1 to 990 pM | – | – | – |
| COC[C@H]1C[C@@H](c2nc3ccc4cc(-c5ccc6c(ccc7nc([C@@H]8CCCN8C(=O)[C@@H](NC(=O)OC)C(C)C)[nH]c76)c5)ccc4c3[nH]2)N(C(=O)[C@H](N)c2ccccc2)C1 [Example 598] | 1 to 999 pM | 1 to 999 pM | 1 to 999 pM | – | 1 to 999 pM | 1 to 999 pM | 0.022 nM | – | – | – | – | – | – | – |
| COC[C@H]1C[C@@H](c2ncc(-c3ccc(-c4ccc5c(ccc6nc([C@@H]7CCCN7C(=O)[C@@H](NC(=O)OC)C(C)C)[nH]c65)c4)cc3)[nH]2)N(C(=O)[C@@H](NC(=O)OC)C(C)C)C1 [Example 441] | – | – | > 44000 pM | – | – | 1000 to 44000 pM | 0.03 nM | 1 to 999 pM | 1 to 999 pM | 1 to 990 pM | 1 to 990 pM | – | – | – |
| CCC(=O)N[C@@H](C(=O)N1CCC[C@H]1c1ncc(-c2ccc3c(c2)COc2cc4c(ccc5nc([C@@H]6CCCN6C(=O)[C@@H](NC(=O)OC)C(C)C)[nH]c54)cc2-3)[nH]1)c1ccccc1 [Example 499] | 1 to 999 pM | 1 to 999 pM | 1 to 999 pM | 1 to 990 pM | – | 1 to 999 pM | 0.032 nM | – | – | – | 1 to 990 pM | – | – | – |
| CCC(=O)N[C@@H](C(=O)N1CCC[C@H]1c1ncc(-c2cc3c4c(c2)OCc2cc(-c5cnc([C@@H]6CCCN6C(=O)[C@H](NC(=O)CC)c6ccccc6)[nH]5)cc(c2-4)OC3)[nH]1)c1ccccc1 [Example 450] | – | – | 1 to 999 pM | – | – | 1 to 999 pM | 0.427 nM | 1 to 999 pM | 1 to 999 pM | 1 to 990 pM | 1 to 990 pM | – | – | – |
